According to US10870630B2, “Substituted bicyclic heteroaryl allosteric modulators of nicotinic acetylcholine receptors” (Merck Sharp & Dohme Corp., priority 2016, dated 2020):
Read-outs that look alike come from different tables or passages of the source.

Target: human α7 nicotinic acetylcholine receptor (α7 nAChR) (Homo sapiens, UniProt P36544)
Assay: Automated patch-clamp electrophysiology functional assay (Assay A)
Assay type: cell-based
Conditions: HEK cell line stably expressing human RIC-3 and human α7, IonFlux HT whole-cell population patch, 40 μM acetylcholine
Description: The α7 nAChR positive allosteric modulator (PAM) activity of the present compounds may be tested using assays known in the art. The α7 nAChR PAMs described herein have activities in an automated patch-clamp electrophysiology functional assay as described in the examples. The assay was performed using the IonFlux HT in a whole-cell, population patch configuration. See Golden et al. Assay Drug Dev. Technol. (2011) 9:608-619. The compounds were assessed for their ability to modulate the function of the human […] nAChR stably expressed in a HEK cell line both in the presence, and in the absence of the natural 07 agonist acetylcholine. By performing a series of such measurements at different concentrations, the effective concentration of the α7 nAChR PAMs (EC50) was determined. See Spencer et al. Assay Drug Dev. Technol. (2012) 10:313-324.
Automated patch-clamp electrophysiology was performed using the IonFlux HT (Fluxion Biosciences Inc., San Francisco, Calif.) in the whole-cell, population patch configuration. Test compounds were assessed for their ability to modulate the function of the α7 nicotinic acetylcholine receptor both in the presence, and in the absence of the natural α7 agonist acetylcholine. A HEK cell line stably expressing both human RIC-3 and human α7 (PrecisION hnAChR α7/RIC-3, Eurofins Pharma, St. Charles, Mo.) was cultured in 175 cm^2 triple-layer tissue culture flasks to no more than 90% confluency in DMEM/F-12 growth media supplemented with 10% heat-inactivated fetal bovine serum, 1% non-essential amino acids, 0.625 μg/mL Puromycin, and 400 μg/mL Geneticin. Immediately prior to assay, cells were detached by first aspirating growth media, rinsing with Dulbecco's phosphate buffered saline, and then adding 10 mL of Accutase (Innovative Cell Technologies, San Diego, Calif.) to the flask and then incubating at 37° C. for 5 minutes. Detached cells were then recovered by the addition of 40 mL of CHO-serum-free media supplemented with 25 mM HEPES, and rocked gently in a 50 mL conical tube for 20 minutes prior to patch-clamp assay. After recovery, cells were pelleted by centrifugation at 1,000 RPM for 1 minute in a compact bench top centrifuge; recovery media was aspirated and cells were resuspended in external recording solution (150 mM NaCl, 5 mM KCl, 2 mM CaCl2, 1 mM MgCl2, 10 mM HEPES, 12 mM dextrose) to a density of 5.0×10^6 cells/mL. The cell suspension was added to the cell inlet wells on an IonFlux HT population patch plate which had previously been rinsed and primed with deionized H2O. Test compounds were serially diluted in DMSO and then resuspended to the final test concentration in external recording solution, with, or without 40 μM acetylcholine added to the external recording solution; test compounds were then transferred to the IonFlux HT population patch plate. Internal recording solution (110 mM TrisPO4, 28 mM TrisBase, 0.1 mM CaCl2, 2 mM MgCl2, 11 mM EGTA, 4 mM MgATP) was added to the internal recording solution inlet wells on the IonFlux HT patch plate previously loaded with cells and test compounds, and the plate loaded into the IonFlux HT instrument. A protocol was executed on the IonFlux HT to trap the cells, break into the cells, and establish the whole-cell recording configuration; cells were voltage-clamped at a holding potential of −60 mV for the duration of the experiment, all experiments were conducted at room temperature, and the IonFlux HT injection pressure was 8 psi for solution applications. Upon establishing the whole-cell configuration, external recording solution was perfused into the recording chambers for 120 seconds and then 40 μM acetylcholine was applied for 1 second and immediately washed off with external recording solution for 60 seconds. The 40 μM acetylcholine-evoked α7 current served as the current response to which subsequent test compound effects, in the presence, or in the absence of 40 μM acetylcholine would be quantified relative to. […]

Chain of human α7 nicotinic acetylcholine receptor (α7 nAChR) (P36544 23-502): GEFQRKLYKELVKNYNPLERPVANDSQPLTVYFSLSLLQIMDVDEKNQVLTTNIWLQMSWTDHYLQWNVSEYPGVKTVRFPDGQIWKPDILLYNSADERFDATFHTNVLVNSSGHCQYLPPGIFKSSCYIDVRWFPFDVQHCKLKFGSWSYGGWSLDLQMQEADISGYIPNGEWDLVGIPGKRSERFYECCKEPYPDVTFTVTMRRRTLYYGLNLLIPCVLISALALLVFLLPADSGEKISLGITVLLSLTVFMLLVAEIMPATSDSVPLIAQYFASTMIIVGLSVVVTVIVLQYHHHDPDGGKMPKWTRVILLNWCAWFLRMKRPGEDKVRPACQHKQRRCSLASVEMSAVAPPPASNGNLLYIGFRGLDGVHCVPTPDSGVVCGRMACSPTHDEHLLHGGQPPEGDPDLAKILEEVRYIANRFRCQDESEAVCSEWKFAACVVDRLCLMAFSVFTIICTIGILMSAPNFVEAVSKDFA

Compound	EC50 (read-out: α7 nAChR Potency)	EC50 (read-out: α7 nAChR EC50)
NS(=O)(=O)c1ccc([C@H]2C[C@@H]2c2nc3ccc(F)cc3o2)cc1 [Example B7, 4-[(1 S,2S)-2-(6-Fluoro-1,3-benzoxazol-2-yl)cyclopropyl]benzenesulfonamide]	500 to 5000 nM	4200 nM
CC1(C)[C@H](c2ccc(S(N)(=O)=O)cc2)[C@H]1c1nc2cccnc2o1 [Example 6, 4-[(1R,3R)-2,2-Dimethyl-3-([1,3]oxazolo[5,4-b]pyridin-2-yl)cyclopropyl]benzenesulfonamide]	500 to 5000 nM	3400 nM
CC1(C)[C@@H](c2ccc(S(N)(=O)=O)cc2)[C@@H]1c1nc2cc(Cl)ccc2o1 [Example A6, 4-[(1S,3S)-3-(5-Chloro-1,3-benzoxazol-2-yl)-2,2-dimethyl-cyclopropyl]benzenesulfonamide]	100 to 500 nM	430 nM
COc1cccc2oc([C@H]3[C@H](c4ccc(S(N)(=O)=O)cc4)C3(C)C)nc12 [Example A1, 4-[(1S,3S)-3-(4-Methoxy-1,3-benzoxazol-2-yl)-2,2-dimethyl-cyclopropyl]benzenesulfonamide]	500 to 5000 nM	830 nM
COc1ccc2oc([C@@H]3[C@@H](c4ccc(S(N)(=O)=O)cc4)C3(C)C)nc2c1 [Example B10, 4-[(1R,3R)-3-(5-Methoxy-1,3-benzoxazol-2-yl)-2,2-dimethyl-cyclopropyl]benzenesulfonamide]	500 to 5000 nM	660 nM
NS(=O)(=O)c1ccc([C@H]2[C@H](c3nc4ccccc4o3)C2(F)F)cc1 [Example A7, 4-[(1R,3R)-3-(1,3-Benzoxazol-2-yl)-2,2-difluoro-cyclopropyl]benzenesulfonamide]	≤ 100 nM	52 nM
NS(=O)(=O)c1ccc([C@H]2[C@H](c3nc4ccccc4s3)C2(F)F)cc1 [Example A8, 4-[(1R,3S)-3-(1,3-Benzothiazol-2-yl)-2,2-difluoro-cyclopropyl]benzenesulfonamide]	≤ 100 nM	38 nM
NS(=O)(=O)c1ccc([C@@H]2[C@@H](c3nc4ccccc4o3)C2(F)F)cc1 [Example B11, 4-[(1S,3S)-3-(1,3-Benzoxazol-2-yl)-2,2-difluoro-cyclopropyl]benzenesulfonamide]	100 to 500 nM	430 nM
NS(=O)(=O)c1ccc([C@H]2[C@H](c3nc4c(o3)CCCC4)C2(F)F)cc1 [Example C4, 4-[(1R,3R)-2,2-Difluoro-3-(4,5,6,7-tetrahydro-1,3-benzoxazol-2-yl)cyclopropyl]benzenesulfonamide]	500 to 5000 nM	–
CC1(C)[C@H](c2ccc(S(N)(=O)=O)cc2)[C@H]1c1nc2ccccc2o1 [Example 1, 4-[(1R,3R)-3-(1,3-Benzoxazol-2-yl)-2,2-dimethylcyclopropyl]benzenesulfonamide]	500 to 5000 nM	620 nM
CC1(C)[C@H](c2ccc(S(N)(=O)=O)cc2)[C@H]1c1cn2ncccc2n1 [Example 8, 4-((1R,3R)-3-(Imidazo[1,2-b]pyridazin-2-yl)-2,2-dimethylcyclopropyl)benzenesulfonamide]	500 to 5000 nM	3800 nM
Cn1c([C@@H]2[C@@H](c3ccc(S(N)(=O)=O)cc3)C2(C)C)nc2cc(F)cc(F)c21 [Example D4, 4-[(1R,3R)-3-(5,7-Difluoro-1-methyl-benzimidazol-2-yl)-2,2-dimethyl-cyclopropyl]benzenesulfonamide]	5000 to 50000 nM	–
CC1(C)[C@@H](c2ccc(S(N)(=O)=O)cc2)[C@@H]1c1ncc2c(F)cccc2n1 [Example C2, 4-[(1S,3S)-3-(5-Fluoroquinazolin-2-yl)-2,2-dimethyl-cyclopropyl]benzenesulfonamide]	500 to 5000 nM	–
CC1(C)[C@@H](c2ccc(S(N)(=O)=O)cc2)[C@@H]1c1nc2c(F)cc(F)cc2s1 [Example A3, 4-[(1S,3S)-3-(4,6-Difluoro-1,3-benzothiazol-2-yl)-2,2-dimethyl-cyclopropyl]benzenesulfonamide]	500 to 5000 nM	960 nM
CC1(C)[C@H](c2ccc(S(N)(=O)=O)cc2)[C@H]1c1nc2ccc(F)cc2o1 [Example B2, 4-[(1R,3R)-3-(6-Fluoro-1,3-benzoxazol-2-yl)-2,2-dimethyl-cyclopropyl]benzenesulfonamide]	100 to 500 nM	300 nM
CC1(C)[C@H](c2ccc(S(N)(=O)=O)cc2)[C@H]1c1nc2cc(Cl)ccc2o1 [Example B6, 4-[(1R,3R)-3-(5-Chloro-1,3-benzoxazol-2-yl)-2,2-dimethyl-cyclopropyl]benzenesulfonamide]	100 to 500 nM	200 nM
NS(=O)(=O)c1ccc([C@@H]2C[C@H]2c2nc3c(o2)CCCC3)cc1 [Example 4, 4-[(1R,2R)-2-(4,5,6,7-Tetrahydro-1,3-benzoxazol-2-yl)cyclopropyl]benzenesulfonamide]	500 to 5000 nM	610 nM
NS(=O)(=O)c1ccc([C@H]2[C@H](c3nc4ccccc4[nH]3)C2(F)F)cc1 [Example A9, 4-[(1R,3R)-3-(1H-Benzimidazol-2-yl)-2,2-difluorocyclopropyl]benzenesulfonamide]	500 to 5000 nM	–
NS(=O)(=O)c1ccc([C@@H]2[C@@H](c3nc4ccccc4s3)C2(F)F)cc1 [Example B12, 4-[(1S,3R)-3-(1,3-Benzothiazol-2-yl)-2,2-difluoro-cyclopropyl]benzenesulfonamide]	100 to 500 nM	–
CC1(C)[C@@H](c2ccc(S(N)(=O)=O)cc2)[C@@H]1c1nc2ccc(F)cc2o1 [Example 2, 4-[(1S,3S)-3-(6-Fluoro-1,3-benzoxazol-2-yl)-2,2-dimethylcyclopropyl]benzenesulfonamide]	≤ 100 nM	71 nM

More lines, now with the values ahead:

EC50 (read-out: α7 nAChR Potency)	EC50 (read-out: α7 nAChR EC50)	Compound
500 to 5000 nM	–	NS(=O)(=O)c1ccc(C2CC2c2cc3ccncc3s2)cc1 (racemic) [Example E7, 4-(2-Thieno[2,3-c]pyridin-2-ylcyclopropyl)benzenesulfonamide]
100 to 500 nM	410 nM	Cc1nc2c(C3CC3c3ccc(S(N)(=O)=O)cc3)cccc2s1 (racemic) [Example E1, 4-[2-(2-Methyl-1,3-benzothiazol-4-yl)cyclopropyl]benzenesulfonamide]
500 to 5000 nM	–	NS(=O)(=O)c1ccc(C2CC2c2ccc3ccncc3n2)cc1 (racemic) [Example E8, 4-[2-(1,7-Naphthyridin-2-yl)cyclopropyl]benzenesulfonamide]
500 to 5000 nM	3500 nM	NS(=O)(=O)c1ccc(C2CC2c2cnn3ccccc23)cc1 (racemic) [Example E3, 4-(2-Pyrazolo[1,5-a]pyridin-3-ylcyclopropyl)benzenesulfonamide]
500 to 5000 nM	2800 nM	Cn1ncc2cc(C3CC3c3ccc(S(N)(=O)=O)cc3)ccc21 (racemic) [Example E9, 4-[2-(1-Methylindazol-5-yl)cyclopropyl]benzenesulfonamide]
500 to 5000 nM	1200 nM	NS(=O)(=O)c1ccc(C2CC2c2ccc3cc(Cl)ncc3c2)cc1 (racemic) [Example E6, 4-[2-(3-Chloro-7-isoquinolyl)cyclopropyl]benzenesulfonamide]
500 to 5000 nM	–	NS(=O)(=O)c1ccc(C2CC2c2cnc3occc3c2)cc1 (racemic) [Example E11, 4-(2-Furo[2,3-b]pyridin-5-ylcyclopropyl)benzenesulfonamide]
500 to 5000 nM	–	NS(=O)(=O)c1ccc(C2CC2c2ccc3nccnc3c2)cc1 (racemic) [Example E4, 4-(2-Quinoxalin-6-ylcyclopropyl)benzenesulfonamide]
